How the values were obtained:
[1] = test system: trigeminal ganglion (TG) neuronal cells; test: Inhibition of VEGF-B induced neurite growth in TG neurons; assay type: cell-based, mouse; conditions: 3 days
Method: (§1) Trigeminal ganglion (TG) neuronal cells were obtained and cultured as described previously. Pan, Z., Fukuoka et al., FASEB J. 27, 2756-2767 (2013). To evaluate the effect of VEGF-B on neuronal growth, TG neuronal cells were treated with 10-100 ng/ml recombinant mouse VEGF-B^186 (R&D 767-VE-010). The VEGF-B treatments were replenished every other day. Neurite formation and growth was followed up to 3 days. […] VEGF receptors were inhibited by using neutralizing antibodies against VEGFR1 (R&D AF471), VEGFR2 (R&D MAB4431) and Neuropilin 1 (NRP1) (R&D MAB566). TG cells were incubated in a dose dependent manner with anti-VEGFR1, anti-VEGFR2 or anti-NRP1 for 1 hour prior to the addition of 50 ng/ml VEGF-B. The tyrosine kinase domains of VEGFR2 were inhibited with specific inhibitors by incubating TG neuronal cells with 10 μM SU 1498 (Sigma T4192) or 5 nM Ki 8751 (Sigma K1265) for 1 hr before adding 50 ng/ml VEGF-B. All neurite growth was imaged with an AxioObserver Z1 fluorescence microscope in the YFP channel attached to an AxioCam HRm digital camera (Zeiss) operated by AxioVision 4.0 software. Images were analyzed using Neurolucida 9 (MBF Bioscience) a quantitative nerve tracing software.

[2] = test system: Human corneal limbal epithelial (HCLE) cells; test: In vitro scratch wound assay; assay type: cell-based; conditions: 10 ng/ml
Method: Human corneal limbal epithelial (HCLE) cells were cultured in 6-well plates until confluency as described. Pan, Z., Fukuoka et al., FASEB J. 27, 2756-2767 (2013). Cells were starved in KSFM medium (gibco 10724-011) without supplements for 24 h. Then a straight-line scratch mark was made in each well with a 200 ul pipette tip. KSFM medium supplemented with VEGF-B^186 (50 ng/ml) or EGF (10 ng/ml, Millipore 01-101) was added to the wells. Scratch areas were imaged at 0, 8, 24 and 48 hours at the same locations using the mark and find module of the Axiovision software and the wound closure analyzed by Photoshop.

[3] = test system: trigeminal ganglion (TG) neuronal cells; test: Trigeminal ganglion neuronal growth assay; assay type: cell-based, mouse; conditions: 50 ng/ml, three days in culture (FIG. 2A)
Method: as §1

[4] = test system: corneal nerves of Thy-1-YFP mice; test: Corneal nerve regeneration with combinations of VEGF-A and VEGF-B; assay type: in vivo, mouse; conditions: ligand administered separately, two weeks post-injury (FIG. 14)
Method: Thy-1-YFP mice were subjected to cornea epithelium debridement to ablate the superficial nerve endings that innervate the cornea Immediately after injury, the mice were treated with different combinations of VEGF-A and VEGF-B. As shown, combinations of VEGF ligands induce greater nerve regeneration in vivo.
The observed effects were also recapitulated in vivo. Thy-1-YFP neurofluorescent mice were used to induce a corneal epithelium injury that results in ablation of the superficial nerve endings of the cornea. The mice were then treated with different combinations of VEGF-A and VEGF-B, and nerve regeneration was analyzed after two weeks post-injury.

COc1cc2nccc(Oc3ccc(NC(=O)Nc4ccc(F)cc4F)c(F)c3)c2cc1OC [Ki 8751]
inhibition of VEGF-B induced neurite growth ([1]; 5 nM, 1 hr before 50 ng/ml VEGF-B): does not block

CC(C)c1cc(/C=C(\C#N)C(=O)NCCCc2ccccc2)cc(C(C)C)c1O [SU 1498]
inhibition of VEGF-B induced neurite growth ([1]; 10 μM, 1 hr before 50 ng/ml VEGF-B): does not block

EGF: epidermal growth factor (Millipore 01-101), a known inducer of epithelial cell proliferation
time of complete confluence of the scratch area [2]: 24 h
time to complete closure of the scratch area [2]: < 24 h
onset of cell growth into the scratch area ([2]; post-treatment): 8 h

B1: VEGF-A: vascular endothelial growth factor A; 232 amino acid protein, NextProt NX_P15692, SEQ ID NO. 2 (protein, listed as Homo sapiens)
chain: MNFLLSWVHWSLALLLYLHVKFMDVYQRSYCHPIETLVDIFQEYPDEIEYIFKPSCVPLMRCGGCCNDEGLECVPTEESNITMQIMRIKPHQGQHIGEMSFLQHNKCECRPKKDRARQEKKSVRGKGKGQKRKRKKSRYKSWSVYVGARCCLMPWSLPGPHPCGPCSERRKHLFVQDPQTCKCSCKNTDSRCKARQLELNERTCRCDKPRRHAKWSQAAPMAEGGGQNHHEV
pattern of neurite growth (elongation and branching) [3]: mainly neurite elongation with few branching nodes
nerve regeneration [4]: induced greater nerve regeneration

B2: soluble VEGFR1: recombinant human-soluble VEGFR1 (sVEGFR1/sFlt1, CellSciences CRF103) (protein)
chain: SKLKDPELSLKGTQHIMQAGQTLHLQCRGEAAHKWSLPEMVSKESERLSITKSACGRNGKQFCSTLTLNTAQANHTGFYSCKYLAVPTSKKKETESAIYIFISDTGRPFVEMYSEIPEIIHMTEGRELVIPCRVTSPNITVTLKKFPLDTLIPDGKRIIWDSRKGFIISNATYKEIGLLTCEATVNGHLYKTNYLTHRQTNTIIDVQISTPRPVKLLRGHTLVLNCTATTPLNTRVQMTWSYPDEKNKRASVRRRIDQSNSHANIFYSVLTIDKMQNKDKGLYTCRVRSGPSFKSVNTSVHIYDKAFITVKHRKQQVLETVAGKRSYRLSMKVKAFPSPEVVWLKDGLPATEKSARYLTRGYSLIIKDVTEEDAGNYTILLSIKQSNVFKNLTATLIVNVKPQIYEKAVSSFPDPALYPLGSRQILTCTAYGIPQPTIKWFWHPCNHNHSEARCDFCSNNEESFILDADSNMGNRIESITQRMAIIEGKNKMASTLVVADSRISGIYICIASNKVGTVGRNISFYITDVPNGFHVNLEKMPTEGEDLKLSCTVNKFLYRDVTWILLRTVNNRTMHYSISKQKMAITKEHSITLNLTIMNVSLQDSGTYACRARNVYTGEEILQKKEITIRGEHCNKKAVFSRISKFKSTRNDCTTQSNVKH
inhibition of VEGF-B induced neurite growth ([1]; equal molar concentration (2.6 nM) with 50 ng/ml VEGF-B): inhibited
